Laboratory results from ChEMBL document CHEMBL6071191, “Correlating Predicted Reactivities with Experimental Inhibition Data of Covalent ChlaDUB1 Inhibitors” (ACS Med Chem Lett, 2024).

What was measured:
[1] = target: T1, Deubiquitinase and deneddylase Dub1 (Chlamydia trachomatis serovar L2 (strain ATCC VR-902B / DSM 19102 /434/Bu)) (UniProt B0B9A0); assay: Binding affinity to Chlamydia trachomatis DUB1 using Ub-Rh110Gly as substrate assessed as ratio of Kinact/Ki
T1 sequence (whole entry): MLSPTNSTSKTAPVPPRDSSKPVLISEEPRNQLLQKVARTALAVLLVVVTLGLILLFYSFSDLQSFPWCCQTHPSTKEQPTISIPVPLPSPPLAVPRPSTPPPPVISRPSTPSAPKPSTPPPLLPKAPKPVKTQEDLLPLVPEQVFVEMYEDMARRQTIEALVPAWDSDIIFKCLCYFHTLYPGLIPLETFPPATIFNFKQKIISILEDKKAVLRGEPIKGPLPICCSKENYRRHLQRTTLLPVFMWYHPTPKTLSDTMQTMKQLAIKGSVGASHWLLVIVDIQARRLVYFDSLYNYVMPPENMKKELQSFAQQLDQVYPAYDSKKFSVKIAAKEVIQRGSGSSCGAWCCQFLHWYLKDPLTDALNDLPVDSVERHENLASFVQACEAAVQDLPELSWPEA

[2] = Drug metabolism in PBS assessed as pseudo-first-order rate constant of Cysteine at 50 uM incubated for >10 hrs in presence of L-Cysteine by HPLC-UV analysis; type: ADME; details: buffer

Row | Structure (SMILES) | Ratio [1] | K [2]
1 | COc1ccccc1CNC(=O)c1ccc(CNS(=O)(=O)c2cnc(C#N)nc2)cc1 | 15.6 M⁻¹ s⁻¹ | 
2 | COc1ccccc1CNC(=O)c1ccc(CNC(=O)[C@@H]2CCN(C#N)C2)cc1 | 0.761 M⁻¹ s⁻¹ | 0.824 h⁻¹
3 | N#Cc1nccc(C(=O)NCc2ccc(C(=O)NCc3ccccc3)cc2)n1 | 10.7 M⁻¹ s⁻¹ | 
4 | COc1ccccc1CNC(=O)c1ccc(CNC(=O)C2CCN(C#N)CC2)cc1 |  | 0.151 h⁻¹

Second part, the compound after the results:

Row | Ratio [1] | K [2] | Structure (SMILES)
5 | 32.2 M⁻¹ s⁻¹ |  | COc1ccccc1CNC(=O)c1ccc(CNC(=O)c2nc(C#N)ncc2F)cc1
6 | 137 M⁻¹ s⁻¹ |  | COc1ccccc1CNC(=O)c1ccc(CNC(=O)c2coc(C#N)n2)cc1
7 | 1.1 M⁻¹ s⁻¹ | 0.87 h⁻¹ | COc1ccccc1CNC(=O)c1ccc(CNC(=O)[C@H]2CCN(C#N)C2)cc1
